Measurements: US20150105252A1, “SUBSTITUTED PYRAZOLES AS HERBICIDES” (E I DU PONT DE NEMOURS AND COMPANY, priority 2013, published 2015)

What was measured:
[1] = system: foxtail, giant; test: Test C preemergence; type: in vivo, Setaria faberii; conditions: for Plant response rating (scale of 0 to 100), Foxtail, Giant: Preemergence, 250 g ai/ha
Summary of the method: (§1)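 Greenhouse pot test: preemergence application onto freshly seeded loam/sand mix, postemergence application onto seedlings (1–4 leaves, 2–18 cm) in peat-vermiculite substrate. Responses scored visually 13 to 15 days later relative to controls, where 0 means no effect and 100 means complete control; a dash indicates no result.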

[2] = system: velvetleaf; test: Test C postemergence; type: in vivo, Abutilon theophrasti; conditions: for Plant response rating (scale of 0 to 100 where 0 is no effect and 100 is complete control), Velvetleaf: Postemergence, 31 g ai/ha, visually evaluated after 13 to 15 days; for Velvetleaf plant response rating / Plant response rating, Velvetleaf: postemergence; for Velvetleaf plant response rating: 62 g ai/ha, scale 0 to 100
Summary of the method: as §1

[3] = system: johnsongrass; test: Test C preemergence; type: in vivo, Sorghum halepense; conditions: for Plant response rating (scale of 0 to 100), Johnsongrass: Preemergence, 250 g ai/ha
Summary of the method: as §1

[4] = system: rice; test: Test B flood; type: in vivo, Oryza sativa; conditions: 250 g ai/ha, visual rating on 0 to 100 scale (0 no effect, 100 complete control), 13 to 15 days
Summary of the method: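 Plants were grown to the 2-leaf stage and pots flooded to 3 cm above soil. Compounds were applied directly into the paddy water, with depth kept for the test. After 13–15 days in greenhouse, response was rated visually against controls on a 0 (no effect) to 100 (complete control) scale.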

[5] = system: blackgrass; test: Test C postemergence; type: in vivo, Alopecurus myosuroides; conditions: for Plant response rating (scale of 0 to 100 where 0 is no effect and 100 is complete control), Blackgrass: Postemergence, 31 g ai/ha, visually evaluated after 13 to 15 days; for Blackgrass plant response rating / Plant response rating, Blackgrass: postemergence; for Blackgrass plant response rating: 62 g ai/ha, scale 0 to 100
Summary of the method: as §1

[6] = system: barnyardgrass; test: Test C postemergence; type: in vivo, Echinochloa crus-galli; conditions: for Plant response rating (scale of 0 to 100 where 0 is no effect and 100 is complete control), Barnyardgrass: Postemergence, 31 g ai/ha, visually evaluated after 13 to 15 days; for Barnyardgrass plant response rating / Plant response rating, Barnyardgrass: postemergence; for Barnyardgrass plant response rating: 62 g ai/ha, scale 0 to 100
Summary of the method: as §1

[7] = system: nutsedge, yellow; test: Test C postemergence; type: in vivo, Cyperus esculentus; conditions: for Plant response rating (scale of 0 to 100 where 0 is no effect and 100 is complete control), Nutsedge, Yellow: Postemergence, 31 g ai/ha, visually evaluated after 13 to 15 days; for Nutsedge, Yellow plant response rating / Plant response rating, Nutsedge, Yellow: postemergence; for Nutsedge, Yellow plant response rating: 62 g ai/ha, scale 0 to 100
Summary of the method: as §1

[8] = system: foxtail, giant; test: Test A preemergence; type: in vivo, Setaria faberii; conditions: preemergence
Summary of the method: (§2)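 Growth medium: loam soil blended with sand. Preemergence treatment used a directed soil spray right after planting; postemergence treatment targeted seedlings at one to two leaves (2–10 cm height). Response was judged by eye relative to untreated plants about 10 days later on a 0–100 control scale.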

[9] = system: wheat; test: Test A preemergence; type: in vivo, Triticum aestivum; conditions: preemergence
Summary of the method: as §2

[10] = system: pigweed; test: Test A preemergence; type: in vivo, Amaranthus retroflexus; conditions: preemergence
Summary of the method: as §2

[11] = system: lambsquarters; test: Test C preemergence; type: in vivo, Chenopodium album; conditions: for Plant response rating (scale of 0 to 100), Lambsquarters: Preemergence, 250 g ai/ha
Summary of the method: as §1

[12] = system: wheat; test: Test A postemergence; type: in vivo, Triticum aestivum
Summary of the method: as §2

[13] = system: crabgrass, large; test: Test C postemergence; type: in vivo, Digitaria sanguinalis; conditions: for Plant response rating (scale of 0 to 100 where 0 is no effect and 100 is complete control), Crabgrass, Large: Postemergence, 31 g ai/ha, visually evaluated after 13 to 15 days; for Crabgrass, Large plant response rating / Plant response rating, Crabgrass, Large: postemergence; for Crabgrass, Large plant response rating: 62 g ai/ha, scale 0 to 100
Summary of the method: as §1

[14] = preemergence, 31 g ai/ha, visual rating, scale 0 to 100 (0 no effect, 100 complete control), 13 to 15 days
[15] = preemergence, 62 g ai/ha, scale 0 to 100 (0 no effect, 100 complete control), 13 to 15 days
[16] = preemergence, 125 g ai/ha, scale 0 to 100, 0 is no effect, 100 is complete control
[17] = 250 g ai/ha, scale 0 to 100 (0 no effect, 100 complete control)
[18] = 125 g ai/ha, scale 0 to 100, 0 no effect, 100 complete control
[19] = 125 g ai/ha, visual injury, 0 to 100 scale, approx. 10 days
[20] = 500 g ai/ha, visual injury after approx. 10 days, 0 to 100 scale (0 no effect, 100 complete control)
[21] = postemergence, 125 g ai/ha, about 10 days, visual rating on 0 to 100 scale (0 no effect, 100 complete control)
[22] = preemergence, 125 g ai/ha, 13 to 15 days, scale 0 to 100, 0 = no effect, 100 = complete control

## CCCNC(=O)c1cc(CC)n(Cc2nc(C(F)(F)F)nn2C)n1 [Compound 109]
[1]
  Plant response rating (scale of 0 to 100), Foxtail, Giant: 100
[1]; [14]
  Foxtail, Giant plant response rating: 100
[1]; [15]
  Foxtail, Giant plant response rating: 100
[1]; [16]
  Foxtail, Giant plant response rating: 100
[2]
  Plant response rating (scale of 0 to 100 where 0 is no effect and 100 is complete control), Velvetleaf: 10
  Velvetleaf plant response rating: 15
[2]; [17]
  Plant response rating, Velvetleaf: 35
[2]; [18]
  Plant response rating, Velvetleaf: 25
[3]
  Plant response rating (scale of 0 to 100), Johnsongrass: 100
[3]; [14]
  Johnsongrass plant response rating: 80
[3]; [15]
  Johnsongrass plant response rating: 90
[3]; [16]
  Johnsongrass plant response rating: 100
[4]
  Plant response rating, Rice: 0
[5]
  Plant response rating (scale of 0 to 100 where 0 is no effect and 100 is complete control), Blackgrass: 5
  Blackgrass plant response rating: 5
[5]; [17]
  Plant response rating, Blackgrass: 15
[5]; [18]
  Plant response rating, Blackgrass: 10
[6]
  Plant response rating (scale of 0 to 100 where 0 is no effect and 100 is complete control), Barnyardgrass: 5
  Barnyardgrass plant response rating: 5
[6]; [17]
  Plant response rating, Barnyardgrass: 20
[6]; [18]
  Plant response rating, Barnyardgrass: 10
[7]
  Plant response rating (scale of 0 to 100 where 0 is no effect and 100 is complete control), Nutsedge, Yellow: 0
  Nutsedge, Yellow plant response rating: 5
[7]; [17]
  Plant response rating, Nutsedge, Yellow: 5
[7]; [18]
  Plant response rating, Nutsedge, Yellow: 5
[8]; [19]
  Foxtail, Giant plant response rating: 100
[8]; [20]
  Foxtail, Giant plant response rating: 100
[9]; [19]
  Wheat plant response rating: 30
[9]; [20]
  Wheat plant response rating: 90
[10]; [19]
  Pigweed plant response rating: 100
[10]; [20]
  Pigweed plant response rating: 100
[11]
  Plant response rating (scale of 0 to 100), Lambsquarters: 100
[11]; [14]
  Lambsquarters plant response rating: 100
[11]; [15]
  Lambsquarters plant response rating: 100
[11]; [16]
  Lambsquarters plant response rating: 100
[12]; Postemergence, 500 g ai/ha, visual rating after approx. 10 days, 0 to 100 scale (0 no effect, 100 complete control)
  Wheat plant response rating: 80
[12]; [21]
  Wheat plant response rating: 50
[13]
  Plant response rating (scale of 0 to 100 where 0 is no effect and 100 is complete control), Crabgrass, Large: 5
  Crabgrass, Large plant response rating: 10
[13]; [17]
  Plant response rating, Crabgrass, Large: 45
[13]; [18]
  Plant response rating, Crabgrass, Large: 10

## CCONC(=O)c1cc(CC)n(Cc2ccnc(OC(F)F)c2)n1 [Compound 131]
[1]
  Plant response rating (scale of 0 to 100), Foxtail, Giant: 100
[1]; [14]
  Foxtail, Giant plant response rating: 85
[1]; [15]
  Foxtail, Giant plant response rating: 100
[1]; [22]
  Plant response rating, Foxtail, Giant: 100
[2]
  Plant response rating (scale of 0 to 100 where 0 is no effect and 100 is complete control), Velvetleaf: 5
  Velvetleaf plant response rating: 25
[2]; [17]
  Plant response rating, Velvetleaf: 55
[2]; [18]
  Plant response rating, Velvetleaf: 35
[3]
  Plant response rating (scale of 0 to 100), Johnsongrass: 95
[3]; [14]
  Johnsongrass plant response rating: 20
[3]; [15]
  Johnsongrass plant response rating: 65
[3]; [22]
  Plant response rating, Johnsongrass: 85
[4]
  Plant response rating, Rice: 40
[5]
  Plant response rating (scale of 0 to 100 where 0 is no effect and 100 is complete control), Blackgrass: 5
  Blackgrass plant response rating: 5
[5]; [17]
  Plant response rating, Blackgrass: 20
[5]; [18]
  Plant response rating, Blackgrass: 10
[6]
  Plant response rating (scale of 0 to 100 where 0 is no effect and 100 is complete control), Barnyardgrass: 5
  Barnyardgrass plant response rating: 5
[6]; [17]
  Plant response rating, Barnyardgrass: 45
[6]; [18]
  Plant response rating, Barnyardgrass: 10
[7]
  Plant response rating (scale of 0 to 100 where 0 is no effect and 100 is complete control), Nutsedge, Yellow: 5
  Nutsedge, Yellow plant response rating: 5
[7]; [17]
  Plant response rating, Nutsedge, Yellow: 20
[7]; [18]
  Plant response rating, Nutsedge, Yellow: 10
[8]; [19]
  Foxtail, Giant plant response rating: 90
[8]; [20]
  Foxtail, Giant plant response rating: 100
[9]; [19]
  Wheat plant response rating: 90
[9]; [20]
  Wheat plant response rating: 100
[10]; [19]
  Pigweed plant response rating: 100
[10]; [20]
  Pigweed plant response rating: 100
[11]
  Plant response rating (scale of 0 to 100), Lambsquarters: 100
[11]; [14]
  Lambsquarters plant response rating: 98
[11]; [15]
  Lambsquarters plant response rating: 100
[11]; [22]
  Plant response rating, Lambsquarters: 100
[12]; Postemergence, 500 g ai/ha, 0 to 100 scale (0 no effect, 100 complete control)
  Wheat plant response rating: 90
[12]; [21]
  Wheat plant response rating: 80
[13]
  Plant response rating (scale of 0 to 100 where 0 is no effect and 100 is complete control), Crabgrass, Large: 5
  Crabgrass, Large plant response rating: 5
[13]; [17]
  Plant response rating, Crabgrass, Large: 40
[13]; [18]
  Plant response rating, Crabgrass, Large: 15
